According to US20070155827A1, “USE OF BENZO-FUSED HETEROCYCLE SULFAMIDE DERIVATIVES FOR THE TREATMENT OF DEPRESSION” (priority 2005, published 2007):
Entries after “also recorded” stand apart in the source; their conditions may differ. Where two headings read alike, the source gives them in different places.

Assays:
CH3/HeJ mice = assay: Mouse Tail Suspension Assay (Acute), TST; format: in vivo; details: p.o.; for ED50: Mus musculus, po, 7 min, 7-min session
Method: In the tail suspension test (TST) for evaluating compounds for anti-depressant activity, mice are suspended by their tails to a metal or plastic rod using clip or scotch tape. The test is usually quite short, 5-7 min, and the amount of time the mice spend immobile is recorded either manually or with an automated device. Agents which have antidepressant activity, decrease the duration of immobility of mice in this test.
The basic apparatus for the tail suspension assay consisted of a yellow plastic chamber (91×45×10 cm) divided for four arenas 25, 20, 20 and 25 cm wide separated by yellow plastic walls 0.75 cm thick. Mice were suspended by their tails using a rubber clip (7 cm long) attached to the plastic rod that was placed on the top of a testing chamber half way through its deep dimension. Each experimental session was videotaped and analyzed for four animals in the real time by computer software (“Depression Scan” Clever Sys Inc.). The computer justification of immobility was calibrated with the use of animals dosed with lorazepam while justification of movement was calibrated with the high dose of desipramine treated animals. Control, vehicle treated animals and animals treated with Compound #8 were analyzed under the calibrated settings. The settings were adjusted separately for dark (CH3/HeJ and C57Bl/6J strains) and white mice (Balb/cJ and A/J strains). A yellow background was used for dark mice and a blue background was used to record movements of white mice.
The ability of a test compound to decrease the duration of immobility, or increase mobility was measured using the TST procedure described above. Acute treatment with clinically effective antidepressants and/or novel compounds that have potential antidepressant properties decrease the duration of immobility and at the same time increases mobility in the TST.
Data were analyzed using GraphPad Prism software (GraphPad Software, Inc. San Diego, Calif.). For the comparison of the effect of different doses for various drugs on immobility in the TST one-way analyses of variance (ANOVA) were used followed by Dunnett's multiple comparison test. […] The ED50 and Emax values were compared using two-way ANOVA and Bonferroni post-hoc test.
Positive controls included duloxetine (DLX), venlafaxine (VLX)and desipramine (DMI) which were dissolved in 0.5% methylcellulose and lorazepam (LOR) which was suspended in 0.5% of methylcellulose in water by sonication. All drugs and vehicles were administered orally (p.o.) by gavage in a volume of 10 mL/kg.
The mice were ordered 5 weeks old and at the beginning of experiment their weight was 20±5 g. Animals were housed in groups of four in plastic cages at an ambient temperature of 21° C. to 23° C. with an automated 12/12 hours light/dark cycle and access to water and a commercial rodent food ad libitum.
Each experiment consisted of seven treatment groups with four animals per group. A total of 28 animals per experiment were used. Every two consecutive experiments (1 & 2, 3 & 4, 5 & 6 and 7 & 8) were exact replicas of each other. […] One treatment group of four animals in each experiment was a vehicle treated group. In addition to the vehicle treated group, the effects of DMI at 6 mg/kg, 12 mg/kg, 30 mg/kg, 60 mg/kg and 120 mg/kg and LOR at 5 mg/kg were tested in experiments 1 and 2. […] In experiments 5 and 6 the effects of DLX at 6 mg/kg, 12 mg/kg, 30 mg/kg, 60 mg/kg, 120 mg/kg and LOR at 5 mg/kg were tested. […]

Male Wistar rats = assay: Chronic Mild Stress Model (Chronic), sucrose consumption; format: in vivo
Description: In the chronic mild stress (CMS) model rats subjected to a variety of mild stressors for a prolonged period of time show, among other behavioural, biochemical and physiological impairments, a substantial decrease in their responsiveness to rewarding stimuli. This deficit is usually monitored by a decrease in the consumption of the 1% sucrose solution, but can also be seen in other tests, such as place preference conditioning or intracranial self-stimulation. Since the subsensitivity to reward appears to reflect anhedonia (inability to experience pleasure), which is a core symptom of major depressive disorders, the CMS procedure may serve as a suitable research tool in studies into the mechanisms of antidepressant action.
Male Wistar rats were brought into the laboratory two months before the start of the experiment. Except as described below, the animals were singly housed with food and water freely available, and were maintained on a 12-h light/dark and in a constant temperature (22±2° C.) and humidity (50±5%) conditions.
The animals were first trained to consume a 1% sucrose solution; training consisted of eight 1 h baseline tests in which sucrose was presented, in the home cage, following 14 h food and water deprivation; the sucrose intake was measured by weighing pre-weighed bottles containing the sucrose solution, at the end of the test. Subsequently, sucrose consumption was monitored, under similar conditions, at weekly intervals throughout the whole experiment.
On the basis of their sucrose intakes in the final baseline test, the animals were divided into two matched groups. One group of animals was subjected to the chronic mild stress procedure for a period of 7 consecutive weeks. Each week of stress regime consisted of: two periods of food or water deprivation, two periods of 45 degree cage tilt, two periods of intermittent illumination (lights on and off every 2 h), two periods of soiled cage (250 ml water in sawdust bedding), one period of paired housing, two periods of low intensity stroboscopic illumination (150 flashes/min), and three periods of no stress. All stressors were 10-14 h of duration and were applied individually and continuously, day and night. Control animals were housed in separate rooms and had no contact with the stressed animals. They were deprived of food and water for the 14 h preceding each sucrose test, but otherwise food and water were freely available in the home cage.
The drugs were administered at approx. 10.00 and the weekly sucrose tests were carried out 24 h following the last drug injections. […]
All results obtained in this study were analyzed by multiple analyses of variance with three between-subjects factors (stress/control, drug treatments and successive sucrose tests). […]

## NS(=O)(=O)NC[C@H]1COc2cc(Cl)ccc2O1 [Compound #8, (2S)-(−)-N-(6-Chloro-2,3-dihydro-benzo[1,4]dioxin-2-ylmethyl)-sulfamide]
CH3/HeJ mice; read-out: Immobility ED50
  ED50: 5.6 mg/kg
CH3/HeJ mice; read-out: Mobility ED50
  ED50: 3.6 ± 2.9 mg/kg
CH3/HeJ mice; 7-min testing session
  effect on immobility and mobility time in TST: decreased immobility time and increased mobility time; also recorded: antidepressant-like activity
Male Wistar rats; controls, 12, 30 or 60 mg/kg once daily i.p. for five weeks
  Treatment effect on sucrose intake vs vehicle, control animals: did not cause significant Treatment effects
Male Wistar rats; stressed, 12, 30 or 60 mg/kg once daily i.p. for five weeks
  Treatment effect on sucrose intake vs vehicle, stressed animals: did not cause significant Treatment effects
